1 molecule from article PMC12703733, “Probing Guanidino Pendant or Bridged Groups in Cyclic Antimicrobial Peptides Derived from Temporin L: A Strategy to Improve Efficacy against Gram-Negative Bacteria” (Journal of Medicinal Chemistry, 2025) can be followed below.

Where two headings read alike, the source gives them in different places. Bridge positions count the residues as written; N and C are the ends. Square brackets hold non-standard residues; d marks the D form. Peptide text beside a SMILES is read from it. Some results are limits rather than exact numbers.

The subject of data set [1] is all bacteria tested. Put plainly: MIC panel, geometric mean over all strains. It counts as cell-based. The settings on record: geometric mean of the MICs against all bacteria tested. On the procedure:
The antimicrobial efficacy of the TLcyc analogues was assessed against a representative panel of Gram-positive and Gram-negative bacterial strains, by determining their minimal inhibitory concentrations (MIC), as summarized in Table . To provide an integrated measure of antimicrobial potency, we calculated the geometric mean (GM) of MIC values across all strains (GMall), as well as separately for Gram-positive (GMGram+) and Gram-negative (GMGram–) bacteria.
Bacterial strains used in this study were the Gram-positive S. aureus ATCC 25923, S. epidermidis ATCC 12228, B. megaterium BM11, S. agalactiae ATCC 27591, E. faecalis ATCC 29212 and the Gram-negative E. coli ATCC 25922, P. aeruginosa ATCC 27853, A. baumannii ATCC 19606, E. coli D21 and P. aeruginosa PAO1. […] Bacterial cells in the mid log phase were diluted in Muller Hinton (MH) at a concentration of 2 × 10^6 cell/mL. Aliquots of 50 μL of this bacterial suspension were added to 50 μL of MH containing serial 2-fold dilutions of the peptides (from 100 to 0.19 μM) in the wells a 96-well plate. Ciprofloxacin was used as antibiotic control. The plate was then incubated at 37 °C. MICs were obtained from three identical readings of four independent experiments.

Data set [2] is classed as cell-based. To be noted: Cell viability (%). The protocol: (§1) For the evaluation of peptides’ cytotoxicity, the human immortalized keratinocytes (HaCaT cells), purchased from AddexBio (San Diego, CA, USA), and BEAS-2B were used. HaCaT cells were cultured in Dulbecco’s modified Eagle’s medium supplemented with 4 mM glutamine (DMEM), 10% heat-inactivated fetal bovine serum (FBS), and 0.1 mg/mL of penicillin and streptomycin, at 37 °C and 5% CO2. BEAS-2B cells were cultured in RPMI, supplemented with 2 mM glutamine (DMEM), 10% heat-inactivated fetal bovine serum (FBS), 1 mM sodium pyruvate, and 0.1 mg/mL of penicillin and streptomycin, at 37 °C and 5% CO2. Cytotoxicity was tested in vitro using a colorimetric assay that relies on the intracellular reduction of the yellow 3-(4,5-dimethylthiazol-2-yl)-2,5-diphenyltetrazolium bromide salt (MTT) by mitochondrial dehydrogenases of metabolically active cells in formazan crystals (purple). About 4 × 10^4 HaCaT and BEAS-2B cells, suspended in DMEM supplemented with 2% FBS, were plated in triplicate wells of a 96-well microtiter plate. The plate was incubated overnight at 37 °C and 5% CO2. Then, the cells were treated with different concentrations of the peptide (from 100 to 3.12 μM) in a fresh serum-free medium for 2 h and for a longer time (24 h). Following peptide treatment, the medium was removed, and MTT (0.5 mg/mL) solution in Hank’s buffer (136 mM NaCl, 4.2 mM Na2HPO4, 4.4 mM KH2PO4, 5.4 mM KCl, 4.1 mM NaHCO3, pH 7.2, supplemented with 20 mM D-glucose) was added to each well of the plate, that was then incubated for 4 h at 37 °C and 5% CO2. The purple formazan crystals were dissolved using acidified 2-propanol and a microplate reader (Infinite M200; Tecan, Salzburg, Austria) was used to measure the absorbance of each well at 570 nm. The percentage of cell viability was calculated compared to the control, which consisted of cells without any peptide treatment (corresponding to 100% viability) and all data represent the mean of three independent experiments ± SEM.

The test system of data set [3] is BEAS-2B cells. Type of data set: cell-based. The protocol: as §1
The format of data set [4] is cell-based, P. aeruginosa. On the procedure: The antibiofilm activity was evaluated as elsewhere reported. Bacteria grew at 37 °C until they reached an optical density (OD) of 0.8 (λ = 590 nm). The culture was diluted to a cell density of 1 × 10^6 colony-forming units (CFUs)/mL and aliquots of 100 μL of this suspension were dispensed into the wells of a 96-multiwell plate. After biofilm formation (incubation time = 20 h at 37 °C), all the planktonic cells were removed, and the wells were washed twice with PBS (150 μL). After washing, the wells were filled with PBS supplemented with different 2-fold serial dilutions of the tested peptides (from 50 to 1.56 μM). After peptide treatment (incubation time = 2 h at 37 °C) the wells were washed with PBS twice and filled with 150 μL of MTT (0.5 mg/mL) to evaluate biofilm viability after 4 h incubation at 37 °C. The reaction was then stopped by adding SDS (final concentration equal to 5% v/v). A microplate reader (Infinite M200; Tecan, Salzburg, Austria) was used to measure the absorbance of each well at 570 nm and the percentage of biofilm viability was calculated relative to the untreated samples.

The procedure of data set [5]:
The fusogenic ability of peptides was studied performing the lipid mixing experiment and evaluating a reduction in the fluorescence energy transfer efficiency between fluorophores 12-(N-methyl-N-(7-nitrobenz-2-oxa-1,3-diazol-4-yl)) (NBD) and Rhodamine (Rho) bound to liposomes. We prepared unlabeled LUVs mimicking Gram-positive and Gram-negative membranes at a concentration of 0.16 mM, and labeled LUVs mimicking Gram-positive and Gram-negative membranes with 0.6% mol of NBD-PE and 0.6% mol of Rho-PE at the concentration of 0.04 mM. LUVs were prepared as described above, and for the experiment, unlabeled and labeled LUVs were mixed at a 1:4 ratio to have final lipid concentration of 0.1 mM. The fusogenic activity of each peptide was evaluated at lipide/peptide ratio of 0.01, 0.03, 0.05, 0.1, 0.2, 0.3, 0.5, and NBD emission at 530 nm and Rho emission at 590 nm were recorded setting an NBD excitation wavelength set at 465 nm.
The percentage of fusion was calculated as a function of 100% value corresponding to complete mixing of LUVs upon the addition of Triton X-100 (0.05% v/v). The percentage fusion was calculated as [F530/F590]peptide−[F530/F590]blank/[F530/F590]triton−[F530/F590]blank×100 where F 530 and F 590 are the fluorescence intensities at 530 and 590 nm calculated in the absence and in the presence of the peptide and Triton X-100.

A word on the viability: it is a read-out of living cells in per cent, often relative to untreated cells.

As for `CC[C@H](C)[C@H](NC(=O)[C@H](CCCNC(=N)N)NC(=O)[C@H]1CCC(=O)NCCCC[C@H](NC(=O)[C@H](Cc2ccccc2)NC(=O)[C@H](Cc2c[nH]c3ccccc23)NC(=O)[C@@H]2CCCN2C(=O)[C@@H](NC(=O)[C@@H](N)Cc2ccccc2)C(C)C)C(=O)N[C@@H](CCCCN)C(=O)N[C@@H](Cc2ccccc2)C(=O)N[C@H](CC(C)C)C(=O)N1)C(=O)N[C@@H](CC(C)C)C(N)=O` [Peptide 2, FVPWF[KKFle]RIL] (H-FVPWFKKF[dL][dE]RIL-NH2; lactam 6-10), the “geometric mean GMall” value in data set [1] came out at 8.81 µM. In addition, in data set [2], the viability at 6.25 µM was 107%. For the same molecule, the viability at 12.5 µM in data set [2] was 100%. Further, in data set [2], the viability at 25 µM worked out at 91%. In addition, the viability at 100 µM in data set [2] came out at 5%. The “Cell viability (%)” value came to 132% in data set [3] (3.12 µM); 119% in data set [3] (6.25 µM); 114% in data set [3] (12.5 µM); 102% in data set [3] (25 µM); 8% in data set [3] (100 µM). In addition, the viability in data set [4] was above 70%. Besides, the fusion in data set [5] (LUVs DOPG:CL, P/L ratio of 0.3) turned out to be 100%; in data set [5] (LUVs DOPG:DOPE:CL, P/L ratio of 0.5), 75%.
